Experimental data as given in ChEMBL document CHEMBL6103599, “Design of Potent Menin-KMT2A Interaction Inhibitors with Improved In Vitro ADME Properties and Reduced hERG Affinity” (ACS Med Chem Lett, 2025).

Legend:
[1] = test system: HL-60; assay: Cytotoxicity against human HL-60 cells; type: functional, cell-based
[2] = Inhibition of His6-tagged MEN1 458-551 deletion A5T mutant (2 to 583 residues)/MLL (unknown origin) transfected in Escherichia coli BL21 (DE3) protein-protein interaction by TR-FRET assay; design: species or system Homo sapiens
[3] = test system: MV4-11; assay: Antiproliferative activity against human MV4-11 cells assessed as cell growth inhibition measured after 7 days by CellTiter-Glo assay; type: functional, cell-based; settings: MV4-11, 168 h
[4] = biological target: Voltage-gated inwardly rectifying potassium channel KCNH2 (Homo sapiens, UniProt Q12809); assay: Inhibition of hERG expressed in CHO cells; type: toxicity, cell-based
[5] = Metabolic stability in human hepatocytes assessed as clearance by LC-MS analysis; type: ADME, cell-based, Hepatocyte; settings: read-out: CLH
[6] = Apparent permeability across apical to basolateral side in MDR1 knockout dog MDCKII cells incubated for 2 hrs by LC-MS/MS analysis; type: ADME, cell-based, Canis lupus familiaris, MDCK-II; settings: MDCK
[7] = AUCinfinity in male CD-1 mouse at 1 mg/kg, iv measured after 8 hrs by LC-MS/MS analysis; type: ADME, organism-based; settings: in vivo
[8] = Clearance in male CD-1 mouse at 1 mg/kg, iv measured after 8 hrs by LC-MS/MS analysis; type: ADME, organism-based; settings: in vivo
[9] = Half life in male CD-1 mouse at 1 mg/kg, iv measured after 8 hrs by LC-MS/MS analysis; type: ADME, organism-based; settings: in vivo
[10] = Volume of distribution at steady state in male CD-1 mouse at 1 mg/kg, iv measured after 8 hrs by LC-MS/MS analysis; type: ADME, organism-based; settings: in vivo, read-out: Vdss
[11] = Metabolic stability in human liver microsomes assessed as clearance incubated for 20 mins by LC-MS/MS analysis; type: ADME, Microsome; settings: read-out: CLH
[12] = Cmax in male CD-1 mouse at 30 mg/kg, po measured after 8 hrs by LC-MS/MS analysis; type: ADME, organism-based; settings: in vivo
[13] = Oral bioavailability in male CD-1 mouse at 30 mg/kg measured after 8 hrs by LC-MS/MS analysis; type: ADME, organism-based; settings: in vivo
[14] = Hepatic extraction ratio in male CD-1 mouse at 1 mg/kg, iv measured after 8 hrs by LC-MS/MS analysis; type: ADME, organism-based; settings: in vivo, read-out: ERH
[15] = Drug excretion in male Sprague-Dawley rat urine at 3 mg/kg, iv measured after 8 hrs by LC-MS/MS analysis; type: ADME, organism-based; settings: read-out: Drug excretion
[16] = biological target: Cytochrome P450 3A4 (Homo sapiens, UniProt P08684); assay: Inhibition of CYP3A4 (unknown origin) using midazolam as substrate; type: ADME
[17] = Binding affinity to His6-tagged MEN1 458-551 deletion A5T mutant (unknown origin) assessed as dissociation constant by SPR analysis; design: species or system Homo sapiens

Voltage-gated inwardly rectifying potassium channel KCNH2, sequence (Q12809 whole entry): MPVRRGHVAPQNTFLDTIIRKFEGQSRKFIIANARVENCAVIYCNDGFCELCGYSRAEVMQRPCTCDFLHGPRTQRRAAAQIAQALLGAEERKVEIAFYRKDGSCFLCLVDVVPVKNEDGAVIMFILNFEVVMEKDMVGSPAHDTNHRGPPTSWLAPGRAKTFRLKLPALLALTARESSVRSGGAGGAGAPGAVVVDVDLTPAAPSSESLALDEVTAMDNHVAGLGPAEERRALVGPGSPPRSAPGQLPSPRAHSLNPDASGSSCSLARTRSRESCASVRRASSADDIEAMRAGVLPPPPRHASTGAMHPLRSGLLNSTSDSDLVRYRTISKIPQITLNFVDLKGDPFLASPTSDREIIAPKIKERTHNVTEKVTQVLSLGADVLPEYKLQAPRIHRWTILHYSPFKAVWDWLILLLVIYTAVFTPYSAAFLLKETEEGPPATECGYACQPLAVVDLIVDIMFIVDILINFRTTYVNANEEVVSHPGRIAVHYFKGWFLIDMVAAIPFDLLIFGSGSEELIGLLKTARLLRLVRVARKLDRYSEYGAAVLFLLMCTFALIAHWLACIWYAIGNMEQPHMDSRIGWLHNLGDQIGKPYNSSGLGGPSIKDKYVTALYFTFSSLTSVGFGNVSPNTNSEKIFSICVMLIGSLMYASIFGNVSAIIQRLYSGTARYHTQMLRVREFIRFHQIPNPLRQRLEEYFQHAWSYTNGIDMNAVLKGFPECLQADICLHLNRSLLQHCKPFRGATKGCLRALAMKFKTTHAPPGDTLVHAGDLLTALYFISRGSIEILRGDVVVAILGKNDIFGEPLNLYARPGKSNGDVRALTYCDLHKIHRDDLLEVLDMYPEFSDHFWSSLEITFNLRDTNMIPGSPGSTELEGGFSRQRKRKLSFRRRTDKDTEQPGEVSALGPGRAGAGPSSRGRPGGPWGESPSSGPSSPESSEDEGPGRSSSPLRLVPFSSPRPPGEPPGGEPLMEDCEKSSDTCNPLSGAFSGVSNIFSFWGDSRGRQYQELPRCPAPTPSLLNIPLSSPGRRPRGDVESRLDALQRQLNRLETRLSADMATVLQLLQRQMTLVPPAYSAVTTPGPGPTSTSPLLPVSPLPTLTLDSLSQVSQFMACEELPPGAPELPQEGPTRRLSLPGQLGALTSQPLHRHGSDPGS
Cytochrome P450 3A4, sequence (P08684 whole entry): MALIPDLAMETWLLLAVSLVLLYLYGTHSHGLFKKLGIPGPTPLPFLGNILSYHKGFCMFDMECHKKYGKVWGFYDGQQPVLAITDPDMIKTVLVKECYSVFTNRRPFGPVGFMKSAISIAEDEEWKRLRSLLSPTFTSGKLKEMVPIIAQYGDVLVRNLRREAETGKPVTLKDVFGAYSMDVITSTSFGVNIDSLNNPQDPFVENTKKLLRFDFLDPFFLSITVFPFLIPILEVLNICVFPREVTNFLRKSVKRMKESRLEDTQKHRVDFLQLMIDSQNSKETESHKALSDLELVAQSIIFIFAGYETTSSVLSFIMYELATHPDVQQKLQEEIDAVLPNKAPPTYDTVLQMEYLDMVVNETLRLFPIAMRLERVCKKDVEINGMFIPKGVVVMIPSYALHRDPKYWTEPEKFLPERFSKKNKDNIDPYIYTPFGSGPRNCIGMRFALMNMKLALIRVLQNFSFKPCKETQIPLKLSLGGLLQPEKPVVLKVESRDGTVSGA

SMILES | IC50 [1] | IC50 [2] | IC50 [3] | IC50 [4] | CLint scaled [5] | Papp A→B at 2 h [6] | further results
CCN(C(=O)c1cc(F)ccc1Oc1cncnc1N1CC2(CCN(C[C@@H](O)C(F)(F)F)CC2)C1)C(C)C | > 5000 nM | 33 nM | 502 nM |  |  |  | 
CCN(C(=O)c1cc(F)ccc1Oc1nncnc1N1CC2(CCN(CC3(C)CC3)CC2)C1)C(C)C |  | 10 nM | 19 nM | 28000 nM | 6 mL/min/kg | 35 ×10⁻⁶ cm/s | AUC(0-inf) [7]: 92 ng·h/mL; clearance [8]: 129 mL/min/kg; half-life [9]: 2.22 h; Vd [10]: 14.1 L/kg
CC1(CN2CCC3(CC2)CN(c2ncnnc2Oc2ccc(F)cc2CN2C(=O)CC4CC42)C3)CC1 (racemic) |  | 6 nM | 112 nM |  | 4 mL/min/kg | 9 ×10⁻⁶ cm/s | CLint scaled [11]: 4 mL/min/kg; AUC(0-inf) [7]: 160 ng·h/mL; clearance [8]: 104 mL/min/kg; half-life [9]: 0.64 h; Vd [10]: 4.14 L/kg
CCN(C(=O)c1cc(F)ccc1Oc1nncnc1N1CC2(CCN(CC3(SC)CC3)CC2)C1)C(C)C |  | 8 nM | 12 nM | 75000 nM | 14 mL/min/kg | 42 ×10⁻⁶ cm/s | 
CCN(C(=O)c1cc(F)ccc1Oc1nnccc1N1CC2(CCN(CC3(C)CC3)CC2)C1)C(C)C |  | 11 nM | 58 nM | 28000 nM | 8 mL/min/kg | 7 ×10⁻⁶ cm/s | 
CC1(CN2CCC3(CC2)CN(c2ncnnc2Oc2ccc(F)cc2CN2CCOCC2=O)C3)CC1 |  | 5 nM | 190 nM |  | 6 mL/min/kg | 8 ×10⁻⁶ cm/s | 
CCC1(CN2CCC3(CC2)CN(c2ncnnc2Oc2ccc(F)cc2CN2C(=O)COC[C@H]2C)C3)CC1 |  | 5 nM | 21 nM |  | 6 mL/min/kg | 29 ×10⁻⁶ cm/s | 
CC1(CN2CCC3(CC2)CN(c2ncnnc2Oc2ccc(F)cc2C(=O)N2C4CCC2COC4)C3)CC1 |  | 8 nM | 74 nM | 65000 nM | 5 mL/min/kg | 3 ×10⁻⁶ cm/s | AUC(0-inf) [7]: 342 ng·h/mL; clearance [8]: 48.7 mL/min/kg; half-life [9]: 1.68 h; Vd [10]: 4.34 L/kg; Cmax [12]: 5000 ng/mL; bioavailability [13]: 74%; hepatic extraction ratio at 8 h [14]: 0.541; dose excreted at 8 h [15]: 22%; IC50 [16]: > 50000 nM
CCN(C(=O)c1cc(F)ccc1Oc1cncnc1N1CC2(CCN(Cc3ccc(C#N)cc3)CC2)C1)C(C)C | > 5000 nM | 12 nM | 53 nM | < 1000 nM |  |  | 
C[C@@H]1CCCCN1C(=O)c1cc(F)ccc1Oc1nncnc1N1CC2(CCN(CC3(C)CC3)CC2)C1 |  | 20 nM | 145 nM |  | 9 mL/min/kg | 21 ×10⁻⁶ cm/s | 
CSC1(CN2CCC3(CC2)CN(c2ncnnc2Oc2ccc(F)cc2CN2CCCC2=O)C3)CC1 |  | 5 nM | 345 nM |  | 11 mL/min/kg | 6 ×10⁻⁶ cm/s | 
CCN(C(=O)c1cc(F)ccc1Oc1cncnc1N1CC2(CCN(CC3CCCC3)CC2)C1)C(C)C | > 5000 nM | 4 nM | 102 nM |  |  |  | 
C[C@@H]1CCC(=O)N1Cc1cc(F)ccc1Oc1nncnc1N1CC2(CCN(CC3(C)CC3)CC2)C1 |  | 4 nM | 40 nM |  | 3 mL/min/kg | 9 ×10⁻⁶ cm/s | AUC(0-inf) [7]: 323 ng·h/mL; clearance [8]: 51.6 mL/min/kg; half-life [9]: 1.77 h; Vd [10]: 5.48 L/kg; hepatic extraction ratio at 8 h [14]: 0.574
CCN(C(=O)c1cc(F)ccc1Oc1cncnc1N1CC2(CCN(C3CCCC3)CC2)C1)C(C)C | > 5000 nM | 18 nM | 166 nM |  |  |  | 
CCN(C(=O)c1cc(F)ccc1Oc1cncnc1N1CC2(CCN(CC34CC(C3)C4)CC2)C1)C(C)C | > 5000 nM | 13 nM | 20 nM |  |  |  | 
CCN(C(=O)c1cc(F)ccc1Oc1cncnc1N1CC2(CCN(CC3(C)CC3)CC2)C1)C(C)C | > 5000 nM | 7 nM | 22 nM | 10800 nM | 11 mL/min/kg | 26 ×10⁻⁶ cm/s | 
C[C@@H]1COC[C@@H](C)N1C(=O)c1cc(F)ccc1Oc1nncnc1N1CC2(CCN(CC3(C)CC3)CC2)C1 |  | 23 nM | 48 nM |  | 7 mL/min/kg | 8 ×10⁻⁶ cm/s | 
CCN(C(=O)c1cc(F)ccc1Oc1cncnc1N1CC2(CCN(C(=O)C34CC5CC(CC3C5)C4)CC2)C1)C(C)C | > 5000 nM | 8 nM | 58 nM | > 100000 nM |  |  | 
CC1(CN2CCC3(CC2)CN(c2ncnnc2Oc2ccc(F)cc2C(=O)N2CCOCC2)C3)CC1 |  | 62 nM | 314 nM | 46000 nM | 6 mL/min/kg | 4 ×10⁻⁶ cm/s | 
CSC1(CN2CCC3(CC2)CN(c2ncnnc2Oc2ccc(F)cc2CN2C(=O)COC[C@H]2C)C3)CC1 |  | 4 nM | 13 nM |  | 8 mL/min/kg | 8 ×10⁻⁶ cm/s | 
CC(C)C1(CN2CCC3(CC2)CN(c2ncnnc2Oc2ccc(F)cc2CN2C(=O)COC[C@H]2C)C3)CC1 |  | 4 nM | 19 nM |  | 10 mL/min/kg | 35 ×10⁻⁶ cm/s | AUC(0-inf) [7]: 128 ng·h/mL; clearance [8]: 130 mL/min/kg; half-life [9]: 0.76 h; Vd [10]: 5.44 L/kg
C[C@@H]1COC[C@H](C)N1C(=O)c1cc(F)ccc1Oc1nncnc1N1CC2(CCN(CC3(C)CC3)CC2)C1 |  | 9 nM | 65 nM |  | 5 mL/min/kg | 13 ×10⁻⁶ cm/s | 
C[C@@H]1CCCN1C(=O)c1cc(F)ccc1Oc1nncnc1N1CC2(CCN(CC3(C)CC3)CC2)C1 |  | 6 nM | 231 nM |  | 27 mL/min/kg | 23 ×10⁻⁶ cm/s | 
CCN(C(=O)c1cc(F)ccc1Oc1cncnc1N1CC2(CCN(CC3CCCCC3)CC2)C1)C(C)C | > 5000 nM | 8 nM | 23 nM | 3500 nM |  |  | 
CCN(C(=O)c1cc(F)ccc1Oc1cncnc1N1CC2(CCN(CC(C)(C)C)CC2)C1)C(C)C | > 5000 nM | 12 nM | 72 nM | 2900 nM |  |  | 
CCN(C(=O)c1cc(F)ccc1Oc1cncnc1N1CC2(CCN(C(C)=O)CC2)C1)C(C)C | > 5000 nM | 160 nM | > 5000 nM |  |  |  | 
CCN(C(=O)c1cc(F)ccc1Oc1cncnc1N1CC2(CCN(CC(C)C)CC2)C1)C(C)C | > 5000 nM | 66 nM | 416 nM |  |  |  | 
CCN(C(=O)c1cc(F)ccc1Oc1cncnc1N1CC2(CCN(C[C@H]3CC[C@H](NS(=O)(=O)CC)CC3)CC2)C1)C(C)C [REVUMENIB] | > 5000 nM | 0.149 nM | 10 nM | 5000 nM |  |  | 
C[C@@H]1COCC(=O)N1Cc1cc(F)ccc1Oc1nncnc1N1CC2(CCN(CC3(C)CC3)CC2)C1 |  | 4 nM | 19 nM |  | 4 mL/min/kg | 7 ×10⁻⁶ cm/s | Kd [17]: 0.05 nM
CON(C(=O)c1cc(F)ccc1Oc1nncnc1N1CC2(CCN(CC3(C)CC3)CC2)C1)C(C)C |  | 4 nM | 10 nM |  | 7 mL/min/kg | 30 ×10⁻⁶ cm/s | AUC(0-inf) [7]: 212 ng·h/mL; clearance [8]: 78.7 mL/min/kg; half-life [9]: 0.48 h; Vd [10]: 1.7 L/kg; hepatic extraction ratio at 8 h [14]: 0.874
